Measurements taken from patent publication US10738001B2, “Hydrofluoroolefins and methods of using same” (priority 2015, dated 2020).
Where two headings read alike, the source gives them in different places.

Assays:
rats = experiment: toxicity screening study in rats, 4 Hr Inhalation LC50
[1] = Log KOW (octanol/water partition coefficient) by HPLC, OECD Method 117; assay type: physicochemical
Experimental: (§1) In these Examples, Log KOWs, (octanol/water partition coefficients), were determined by HPLC using the method described in OECD Method 117. Atmospheric lifetimes were experimentally determined using a relative rate method to determine the hydroxyl radical rate constant.

[2] = Atmospheric lifetime by relative rate method (hydroxyl radical rate constant); assay type: physicochemical
Experimental: as §1

Row | Compound | 4 Hr Inhalation LC50 (rats) | chromatographic logP ([1]; octanol/water, HPLC, OECD Method 117, average value for the E/Z product mixtures of Examples 1-3, read-out: Log KOW (octanol/water partition coefficient measured by HPLC)) | atmospheric lifetime [2] [years] | Log KOW (octanol/water partition coefficient measured by HPLC) [1] | Log KOW (octanol/water partition coefficient measured by HPLC) ([1]; HPLC, OECD Method 117, average value for the E/Z product mixtures of Examples 1-3) | chromatographic logP [1]
1 | C=C(F)N1C(F)(F)C(F)(F)OC(F)(F)C1(F)F [Example 6, 2,2,3,3,5,5,6,6-octafluoro-4-(1-fluorovinyl)morpholine] | > 10,000 ppm | 4.33 | 0.095 | – | – | –
2 | FC(=CC(F)(F)F)N1C(F)(F)C(F)(F)OC(F)(F)C1(F)F [Example 2] | > 10,390 ppm | – | 0.89 | 4.80 | – | –
3 | FC(=CC(F)(F)F)N(C(F)(F)F)C(F)(F)C(F)(F)F [Example 1, (E&Z)-1,3,3,3-tetrafluoro-N-(1,1,2,2,2-pentafluoroethyl)-N-(trifluoromethyl)prop-1-en-1-amine] | – | – | – | – | 4.57 | –
4 | FC=C(F)N(C(F)(F)C(F)(F)F)C(F)(F)C(F)(F)C(F)(F)F [Example 8, N-(E&Z)-(1,2-difluorovinyl)-1,1,2,2,3,3,3-heptafluoro-N-(perfluoroethyl)propan-1-amine] | – | – | – | 4.97 | – | –
5 | F/C(=C\C(F)(F)F)N(C(F)(F)F)C(F)(F)F [Example 3, (E&Z)-1,3,3,3-tetrafluoro-N,N-bis(trifluoromethyl)prop-1-en-1-amine] | – | – | 1.3 | – | – | 4.12
6 | 4-(E&Z)-(1,2-difluorovinyl)-2,2,3,3,5,5,6,6-octafluoromorpholine [Example 4] | > 10,000 ppm | – | 0.078 | 4.31 | – | –
